Results on four molecules are retold here after patent US20220002306A1, “CRYSTAL FORM OF UPADACITINIB AND PREPARATION METHOD AND USE THEREOF” (CRYSTAL PHARMACEUTICAL (SUZHOU) CO., LTD., priority 2018, published 2022).

Converted amounts (≈) assume the structure as drawn. “And” between values parts separate entries of the source, which are not always exact repeats. Equal entries are not always repeated. “Also recorded” adds a separate entry of the source.

For data set [1] the following is noted: disclosed in WO2017066775A1, cited from earlier work.
Data set [2] is described as follows: Kinetic solubility in pH7.4 PBS, FaSSIF and FeSSIF. The class given is physicochemical. The settings on record: for solubility at 24 h / solubility at 34 h / solubility at 48 h: thermodynamic from solid. The method, then: Solubility measurement for freebase content in upadacitinib freebase acetic acid solvate of the present disclosure. Solubility measurement for upadacitinib freebase acetic acid solvate of the present disclosure in FaSSIF and FeSSIF:
(§1) Solubility measurement for solubility, dissolution, and intrinsic dissolution rate in PBS in the present disclosure:
The solubility of Form C was disclosed in WO2017066775A1. In order to have a comparison with Form C, solubility of Form CSI was measured. Saturated solutions of Form CSI of the present disclosure were prepared with pH7.4 PBS, pH6.5 FaSSIF and pH5.0 FeSSIF at 25° C. or 37° C. After equilibration for 24 h, 34 h and 48 h, the saturated solutions were obtained by filtration. The concentrations of compound I in the saturated solutions were measured by high performance liquid chromatography (HPLC) and the results are listed in Table 8.

Data set [3] in a line: Intrinsic dissolution rate in pH 6.8 PBS. To be noted: for IDR / Cumulative dissolution: 37° C.; for Cumulative dissolution: 100 rpm; for Slope: regression line of data within 8-15 minutes. The class given is physicochemical. The method, then:
as §1
The whole pellet was transferred to a dissolution apparatus to test the intrinsic dissolution rate. The slope (in μg/min) of the regression line was calculated according to the data within 8-15 minutes. Intrinsic dissolution rate (IDR) was further calculated according to the slope (in μg/min/cm^2).

The nature of data set [4]: Storage stability of drug substance (XRPD before and after storage). Format: physicochemical. To be noted: for Solid Form after storage: sealed. The method, then: Solid samples of Form CSI in the present disclosure were sealed and stored under different conditions of 4° C., 25° C./60% RH, 40° C./75% RH, and 60° C./75% RH. Crystalline form was checked by XRPD before and after storage.

Data set [5] in a line: Mechanical stability (tableting, grinding; XRPD). Format: physicochemical. The method, then: 20 mg of Form CSI was weighed into the die of 16 mm round tooling (IDR punch), and tableted by ENERPAC manual tablet press with 3 kN, 7 kN, and 14 kN pressure.
A small amount of Form CSI was grounded manually for 5 minutes in a mortar.

Data set [6] in a line: Particle size distribution. The class given is physicochemical. To be noted: wet mode, Isopar G, after 30 seconds of ultrasound. The method, then: The particle size distribution data in the present disclosure were acquired by a Mastersizer 3000 laser particle size analyzer of Malvern. The test is carried out in wet mode by Hydro MV dispersing device, and the dispersion medium is Isopar G. The method parameters of the laser particle size analyzer are as follows:
The mixture was mixed thoroughly and transferred into the Hydro MV dispersing device. The experiment started when the obscuration is in an appropriate range. The particle size distribution was tested after 30 seconds of ultrasound. The particle size distribution (PSD) patterns are substantially as depicted in FIG. 15 (Form CSI) and FIG. 16 (Form C).

Data set [7] can be described thus: Compressibility (tablet hardness, tensile strength). The class given is physicochemical. The method, then: An ENERPAC manual tablet press was used for compression. 80 mg of Form CSI of the present disclosure and prior art Form C were weighed and added into the dies of a round tooling (ensuring the isotropy of tables), compressed at 10 KN manually, and then stored at room temperature for 24 h until complete elastic recovery. Hardness (H) was tested with an intelligent tablet hardness tester. Diameter (D) and thickness (L) were tested with a caliper. […] Under a certain force, the greater the tensile strength, the better the compressibility.

A short description of data set [8]: In vitro dissolution of drug product (tablet) in pH 6.8 PBS. Format: physicochemical. To be noted: for Cumulative dissolution: drug product of example 16, 30 mg, 37° C., paddle 75 rpm.
Data set [9] is described as follows: Crystalline form before and after formulation process (XRPD). Format: physicochemical. From the text:
Form CSI of the present disclosure was made into tablet according to the formulation in Table 15 and process in Table 16. Crystalline forms before and after formulation were checked by XRPD, and the XRPD pattern overlay is substantially as depicted in FIG. 17.
Crystalline forms before and after formulation were checked by XRPD, and the comparison of XRPD patterns are substantially as depicted in FIG. 18.

For data set [10] the following is noted: FaSSIF (pH 6.5, 37° C.); disclosed in WO2017066775A1; cited from earlier work.
The mark [11] stands for this setting: PBS pH 7.4, aqueous buffer, pH 7.4 PBS, 25° C.
[12] abbreviates: grounded manually for 5 minutes in a mortar.

`CC[C@@H]1CN(C(=O)NCC(F)(F)F)C[C@@H]1c1cnc2cnc3[nH]ccc3n12` [Form D]: the Form conversion result in data set [1] (high water activity) was “will convert to Form C”.
In the case of `CC[C@@H]1CN(C(=O)NCC(F)(F)F)C[C@@H]1c1cnc2cnc3[nH]ccc3n12` [Form CSI, (3S,4R)-3-ethyl-4-(3H-imidazo[1,2-a]pyrrolo[2,3-e]pyrazine-8-yl)-N-(2,2,2-trifluoroethyl) pyrrolidine-1-carboxamide], the solubility – broadly, the dissolved amount per volume that the medium holds – at 24 h in data set [2] (setting [11]) was determined as 0.79 mg/mL (≈ 2.08 mM); in [2] (FaSSIF (pH 6.5, 37° C.)), 3.8 mg/mL (≈ 9.99 mM); in data set [2] (FeSSIF (pH 5.0, 37° C.)), 3.1 mg/mL (≈ 8.15 mM). Also, the solubility at 34 h in data set [2] (setting [11]) amounted to 0.71 mg/mL (≈ 1.87 mM); in data set [2] (FaSSIF (pH 6.5, 37° C.)) it was 4.1 mg/mL (≈ 10.8 mM); in data set [2] (FeSSIF (pH 5.0, 37° C.)), 3 mg/mL (≈ 7.89 mM). The solubility at 48 h in data set [2] (setting [11]) is 0.66 mg/mL (≈ 1.74 mM); in data set [2] (FaSSIF (pH 6.5, 37° C.)) it was 4.1 mg/mL (≈ 10.8 mM); in data set [2] (FeSSIF (pH 5.0, 37° C.)), 3.1 mg/mL (≈ 8.15 mM). The “Solubility compared with Form C” value in data set [2] (pH7.4 PBS, pH6.5 FaSSIF and pH5.0 FeSSIF) is “higher than that of Form C”. In data set [3], this molecule gave an IDR of 665.4630 μg/min/cm^2. Also, the Cumulative dissolution turned out to be 746.1 µg in data set [3] (8 min); 1458.8 µg in [3] (10 min); 3087.0 µg in [3] (15 min); 0.0% in data set [8] (0 min); 28.7% in data set [8] (5 min); 46.4% in data set [8] (10 min). The Cumulative dissolution in [8] (15 min) stood at 53.6%; in data set [8] (20 min) it was 57.5%; in data set [8] (30 min), 61.3%; in data set [8] (45 min) it was 64.9%; in [8] (60 min), 67.3%. Moreover, in [3], the Slope turned out to be 332.7315 µg/min. In [4] (4° C.), the “Time the crystalline form kept stable” value was “at least 6 months”. Also, the “Chemical purity during storage” value is on record as “remains substantially unchanged” in [4] (4° C., 40° C./75% RH and 60° C./75% RH); “remains substantially unchanged” in [4] (25° C./60% RH). For the same molecule, the “Solid Form after storage” value in [4] (4° C., 6 months) was “Form CSI”; in [4] (25° C./60% RH, 6 months) it was “Form CSI”; in [4] (40° C./75% RH, 2 weeks), “Form CSI”; in [4] (60° C./75% RH, 2 weeks), “Form CSI”. Besides, the “Crystalline state after tableting” value in data set [5] (3 kN, 7 kN, and 14 kN pressure) was “does not change”. Further, in data set [5] (3 kN, 7 kN, and 14 kN pressure), the Crystallinity after tableting entry is listed as “remains substantially unchanged”. Besides, the “Crystalline state after grinding” value in data set [5] (setting [12]) was “does not change; also recorded: remains unchanged after grinding”. For the same molecule, in data set [5] (setting [12]), the Crystallinity after grinding result is recorded as “remains substantially unchanged”. Moreover, the “Particle size distribution compared with Form C in WO2017066775A1” value in data set [6] is “more uniform particle size distribution”. This molecule yielded a Mean tensile strength in data set [7] (80 mg compressed at 10 KN) of 1.53 MPa. In addition, in data set [7] (80 mg compressed at 10 KN, tablets No. 1-3), the Hardness was 3.53 kgf and 3.06 kgf and 3.43 kgf. Also, the Tensile strength in data set [7] (80 mg compressed at 10 KN, tablets No. 1-3, T=2H/πDL*9.8) is 1.57 MPa and 1.43 MPa and 1.58 MPa. The “Compressibility compared with Form C” value in data set [7] (compressed at 10 KN) is listed as “better compressibility than Form C in WO2017066775A1”. In addition, in data set [8], the “Dissolution rate of drug product compared with Form C” value is on record as “obviously better than that of Form C in WO2017066775A1”. Besides, the “Physical stability before and after formulation process” value in data set [9] (tablet of Example 15 (Table 15, Table 16)) is “good physical stability”. In addition, the “Crystalline form after formulation process” value in data set [9] (tablet of Example 16 (Table 17, Table 18)) is “remains unchanged”.
For the molecule `CC[C@@H]1CN(C(=O)NCC(F)(F)F)C[C@@H]1c1cnc2cnc3[nH]ccc3n12` [Form A], in data set [1], the Crystallinity and stability result is “poor crystallinity and stability”; the Dehydration entry is reported as “can be easily dehydrated to form amorphous”.
Consider `CC[C@@H]1CN(C(=O)NCC(F)(F)F)C[C@@H]1c1cnc2cnc3[nH]ccc3n12` [Form C in WO2017066775A1, (3S,4R)-3-ethyl-4-(3H-imidazo[1,2-a]pyrrolo[2,3-e]pyrazine-8-yl)-N-(2,2,2-trifluoroethyl) pyrrolidine-1-carboxamide, reference compound], for which the IDR in [3] was 81.6204 μg/min/cm^2. Further, the Cumulative dissolution stood at 94.7 µg in [3] (8 min); 207.4 µg in [3] (10 min); 388.1 µg in [3] (15 min); 0.0% in data set [8] (0 min); 22.7% in data set [8] (5 min); 32.6% in data set [8] (10 min). The Cumulative dissolution was 39.2% in data set [8] (15 min); 44.4% in [8] (20 min); 51.5% in data set [8] (30 min); 59.5% in [8] (45 min); 65.2% in data set [8] (60 min). The same molecule came in with a Slope in data set [3] of 40.8102 µg/min. In data set [7] (80 mg compressed at 10 KN), the Mean tensile strength is on record as 0.69 MPa. Besides, in data set [10], the Solubility (commonly the concentration that dissolves in the medium under given conditions) is listed as 0.22 mg/mL (≈ 0.578 mM).
